Reference: patent US9410152B2, “Use of microrna molecules to influence skin pigmentation” (CHANEL PARFUMS BEAUTE, priority 2011, dated 2016)

System: MNT-1 cells
Assay: Measurement of the relative melanin concentration (absorbance at 470 nm of protein lysates)
Type: cell-based, human
Conditions: Homo sapiens, 288 h, 3.5 mM, 12 days, read-out: percentage inhibition (depigmentation positive control)
Procedure: 4×10^5 MNT-1 cells were seeded per well in a 6-well plate (#353046, Falcon) on day-1. On day 0, the cells were transfected with 50 nM of mimetic of the miRNAs (hsa-mir-137 # C-300604-07-005, hsa-mir-7 # C-300547-05-0005, hsa-mir-330-5p # C-301082-01-0005, negative control # NC-002000-01-05, Dharmacon), using 5 μL of Lipofectamine 2000 (#1668-019, Invitrogen). On day 1, the medium was changed. On day 3, the cells were trypsinized and seeded at 4×10^5 cells per well. On day 4, the cells were transfected again with 50 nM of mimetic of the miRNAs (see day 0). On day 5, the medium was changed. On day 7, the cells were trypsinized and seeded at 4×10^5 cells per well. On day 8, the cells were transfected with 50 nM of mimetic of the miRNAs (see day 0). On day 9, the medium was changed. On day 10, the cells were trypsinized and divided into two (from one by six wells to two by six wells). On day 12, one six-well plate was used for lysis of the RNA and the other for lysis of the proteins. As positive control of depigmentation, MNT-1 cells were incubated with 3.5 mM of kojic acid (Sigma K3125-5G) for 12 days. The cells were distributed as described and the kojic acid was renewed with the medium every 4 days. The percentage inhibition of the kojic acid is of the order of 10%.
On day 12, the cells were washed in PBS twice and lysed in 75 μL/well of a 6-well dish of lysis buffer for the RIPA proteins. The protein lysates were transferred to 1.5-ml Eppendorf tubes and vortexed lightly to homogenize the solution before putting the tube on ice or for storage at −80° C. 2 μL of protein lysate was used for measuring the absorbance of the melanin at 470 nm using the NanoVue spectrophotometer (GE Healthcare). The protein lysate of the unpigmented XB2 keratinocytes was used as calibrator sample (reference=0). To detect the relative quantity of melanin, all the samples were compared with the transfection control sample (miCtrl). The absorbance at 470 nm of the sample miCtrl was fixed at 1 as reference. In addition, the melanin absorption at 470 nm was normalized taking into account the concentration of proteins of each sample relative to miCtrl.

O=c1cc(CO)occ1O [kojic acid, reference compound]
inhibition at 3500 µM: ~10%
